Measurements published in PubChem BioAssay AID330 (DTP/NCI, 2004).
Values joined by “and” are separate entries in the source; they are usually repeats but may differ in a detail not shown here. Equal values may be shown once. Toxic doses and inconclusive results are not listed. Square brackets hold non-standard residues; d marks the D form. Peptide text beside a SMILES is read from it. Tyr(3-NO2) = N[CH](Cc1ccc(O)c([N+](=O)[O-])c1)C(=O)O

Test system: P388 leukemia ip, CD2F1 mice, survival T/C
Assay: NCI In Vivo Anticancer Drug Screen. Data for tumor model P388 Leukemia (intraperitoneal) in CD2F1 (CDF1) mice
Conditions: endpoint: median survival time, higher = longer survival
In short: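 Mice carrying the transplanted tumor received test compound or vehicle. Survival was recorded in each group, and the value is the treated-group measurement divided by that of the vehicle-treated control group.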

[1] = dose: 25.0 mg/kg/injection, schedule: Q01DX005 (ip), vehicle: saline with Tween-80
[2] = dose: 50.0 mg/kg/injection, schedule: Q01DX005 (ip), vehicle: saline with Tween-80
[3] = dose: 50.0 mg/kg/injection, schedule: Q01DX009 (ip), vehicle: saline with Tween-80
[4] = dose: 100.0 mg/kg/injection, schedule: Q01DX009 (ip), vehicle: saline with Tween-80
[5] = dose: 50.0 mg/kg/injection, schedule: Q01DX009 (ip), vehicle: Klucel (hydroxypropylcellulose) (HPC)
[6] = dose: 100.0 mg/kg/injection, schedule: Q01DX009 (ip), vehicle: Klucel (hydroxypropylcellulose) (HPC)
[7] = dose: 60.0 mg/kg/injection, schedule: Q01DX005 (ip), vehicle: saline with Tween-80
[8] = dose: 120.0 mg/kg/injection, schedule: Q01DX005 (ip), vehicle: saline with Tween-80
[9] = dose: 240.0 mg/kg/injection, schedule: Q01DX005 (ip), vehicle: saline with Tween-80
[10] = dose: 50.0 mg/kg/injection, schedule: Q01DX005 (ip), vehicle: Klucel (hydroxypropylcellulose) (HPC)
[11] = dose: 100.0 mg/kg/injection, schedule: Q01DX005 (ip), vehicle: Klucel (hydroxypropylcellulose) (HPC)
[12] = dose: 200.0 mg/kg/injection, schedule: Q01DX005 (ip), vehicle: Klucel (hydroxypropylcellulose) (HPC)
[13] = dose: 50.0 mg/kg/injection, schedule: Q01DX009 (ip), vehicle: saline
[14] = dose: 100.0 mg/kg/injection, schedule: Q01DX009 (ip), vehicle: saline
[15] = dose: 12.5 mg/kg/injection, schedule: Q04DX003 (ip), vehicle: saline with Tween-80
[16] = dose: 50.0 mg/kg/injection, schedule: Q04DX003 (ip), vehicle: saline with Tween-80
[17] = dose: 25.0 mg/kg/injection, schedule: Q01DX009 (ip), vehicle: Klucel (hydroxypropylcellulose) (HPC)
[18] = dose: 100.0 mg/kg/injection, schedule: Q01DX001 (ip), vehicle: saline with Tween-80
[19] = dose: 200.0 mg/kg/injection, schedule: Q01DX009 (ip), vehicle: Klucel (hydroxypropylcellulose) (HPC)
[20] = dose: 12.5 mg/kg/injection, schedule: Q01DX005 (ip), vehicle: saline with Tween-80

C[N+](C)(C)NP(=O)(N[N+](C)(C)C)c1ccccc1 was tested, and the T/C (dose: 60.0 mg/kg/injection, schedule: Q01DX005 (ip), vehicle: saline) was 100 % of control, the T/C (dose: 120.0 mg/kg/injection, schedule: Q01DX005 (ip), vehicle: saline) was 106 % of control and the T/C (dose: 240.0 mg/kg/injection, schedule: Q01DX005 (ip), vehicle: saline) was 100 % of control.

For CC1CCC(C)N(C)C1 (centres undefined), the T/C [1] was 98 % of control and the T/C [2] was 102 % of control.

With CCC(=O)Nc1cc(Cl)cc2[nH]c(C)nc12 the T/C [3] was 110 % of control, the T/C [4] was 99 % of control and the T/C (dose: 200.0 mg/kg/injection, schedule: Q01DX009 (ip), vehicle: saline with Tween-80) was 102 % of control.

OCC(COCCCCCCCCCCCC1C=CCC1)OCCCCCCCCCCCC1C=CCC1 (centres undefined) was tested, and the T/C (dose: 100.0 mg/kg/injection, schedule: Q04DX003 (ip), vehicle: saline) was 101 % of control, the T/C (dose: 200.0 mg/kg/injection, schedule: Q04DX003 (ip), vehicle: saline) was 104 % of control and the T/C (dose: 400.0 mg/kg/injection, schedule: Q04DX003 (ip), vehicle: saline) was 104 % of control.

CCCC[As](CCCC)SCC1OC(OC(C)=O)C(OC(C)=O)C(OC(C)=O)C1OC(C)=O (centres undefined) was tested, and the T/C [5] was 113 % of control and the T/C [6] was 92 % of control.

With CC(C)(C)c1ccc(C(=O)O)c(O)c1.CC(C)(C)c1ccc(C(=O)O)c(O)c1.[Cu] the T/C (dose: 12.5 mg/kg/injection, schedule: Q04DX003 (ip), vehicle: saline) was 102 % of control, the T/C (dose: 25.0 mg/kg/injection, schedule: Q04DX003 (ip), vehicle: saline) was 94 % of control and the T/C (dose: 50.0 mg/kg/injection, schedule: Q04DX003 (ip), vehicle: saline) was 103 % of control.

Cc1csc2n/c(=N/[N+](=O)[O-])sn12 was tested, and the T/C [7] was 92 % of control, the T/C [8] was 103 % of control and the T/C [9] was 120 % of control.

With NC(=O)C(Cc1ccc(O)c([N+](=O)[O-])c1)NC(=O)C(N)Cc1ccccc1 (centres undefined) (H-Phe-[Tyr(3-NO2)]-NH2; configuration not given here) the T/C [10] was 103 % of control, the T/C [11] was 96 % of control and the T/C [12] was 96 % of control.

For CCC(C)(O)P(=O)(O)O (centres undefined), the T/C [13] was 98 % of control, the T/C [14] was 98 % of control and the T/C (dose: 200.0 mg/kg/injection, schedule: Q01DX009 (ip), vehicle: saline) was 95 % of control.

With CCC(O)C(O)(c1ccccc1)c1nc2ccccc2s1 (centres undefined) the T/C [10] was 102 % of control, the T/C [11] was 102 % of control and the T/C [12] was 99 % of control.

O=N[O-].[Co].[N-]=C=S.[NH2-].[NH2-].[NH2-].[NH2-] was tested, and the T/C [15] was 110 % of control, the T/C (dose: 25.0 mg/kg/injection, schedule: Q04DX003 (ip), vehicle: saline with Tween-80) was 120 % of control and the T/C [16] was 120 % of control.

With COc1ccc(CCNC2Oc3ccc([N+](=O)[O-])cc3-c3nc(C)c(C#N)cc32)cc1OC (centres undefined) the T/C (dose: 15.0 mg/kg/injection, schedule: Q01DX005 (ip), vehicle: saline with Tween-80) was 98 % of control, the T/C (dose: 30.0 mg/kg/injection, schedule: Q01DX005 (ip), vehicle: saline with Tween-80) was 98 % of control and the T/C [7] was 91 % of control and 92 % of control.

CCCC(NC(=O)OCc1ccccc1)C(=O)NC(C)C(=O)O (centres undefined) was tested, and the T/C [17] was 104 % of control, the T/C [5] was 105 % of control and the T/C [11] was 100 % of control. For the same compound, the T/C [6] was 106 % of control.

CN=C(Nc1ccccn1)c1ccc(NC(=O)c2ccc(C(=O)Nc3ccc(C(=NC)Nc4ccccn4)cc3)cc2)cc1 was tested, and the T/C [10] was 107 % of control and the T/C [11] was 110 % of control.

c1ccc(C2OCCN2c2ccccc2)cc1 (centres undefined) was tested, and the T/C (dose: 12.5 mg/kg/injection, schedule: Q01DX001 (ip), vehicle: saline with Tween-80) was 107 % of control, the T/C (dose: 25.0 mg/kg/injection, schedule: Q01DX001 (ip), vehicle: saline with Tween-80) was 107 % of control and the T/C (dose: 50.0 mg/kg/injection, schedule: Q01DX001 (ip), vehicle: saline with Tween-80) was 107 % of control. The T/C [18] was 101 % of control.

With CCSc1nnc(C2CCC(=O)N2Cc2ccccc2)o1 (centres undefined) the T/C [7] was 94 % of control, the T/C [8] was 100 % of control and the T/C [9] was 100 % of control.

For COc1ccccc1/C=C/C1=C(C)C(=O)CC(c2ccccc2OC)C1C (centres undefined), the T/C [6] was 100 % of control, the T/C [19] was 98 % of control and the T/C (dose: 400.0 mg/kg/injection, schedule: Q01DX009 (ip), vehicle: Klucel (hydroxypropylcellulose) (HPC)) was 92 % of control.

In the case of COc1ccc(O)cc1, the T/C [20] is reported as 104 % of control, the T/C [1] is reported as 99 % of control and the T/C [2] is reported as 99 % of control. The T/C [18] was 101 % of control, the T/C (dose: 100.0 mg/kg/injection, schedule: Q01DX005 (ip), vehicle: saline with Tween-80) was 99 % of control and the T/C (dose: 200.0 mg/kg/injection, schedule: Q01DX001 (ip), vehicle: saline with Tween-80) was 102 % of control.

With CC(=O)CC(c1ccccc1)C(Sc1ccccc1)(Sc1ccccc1)Sc1ccccc1 (centres undefined) the T/C [5] was 101 % of control and the T/C [19] was 93 % of control.

In the case of COC(=O)C12C3C4C1C1C2C3C41C(=O)OC (centres undefined), the T/C [7] is reported as 102 % of control, the T/C [8] is reported as 102 % of control and the T/C [9] is reported as 102 % of control.

Cc1cc(C)c(S(=O)(=O)OCC2OC(OC3(COS(=O)(=O)c4c(C)cc(C)cc4C)OC(COS(=O)(=O)c4c(C)cc(C)cc4C)C(O)C3O)C(O)C(O)C2O)c(C)c1 (centres undefined) was tested, and the T/C [17] was 107 % of control and the T/C [5] was 99 % of control.

For COc1ccc2c(c1)c(NCCCCCC#N)cc(C)[n+]2C, the T/C [20] was 100 % of control, the T/C [1] was 100 % of control and the T/C [2] was 105 % of control.

C=C1C(NC)CCC23CC24CCC2(C)C(C(C)=O)C(O)CC2(C)C4CCC13 (centres undefined) was tested, and the T/C [3] was 92 % of control and the T/C [4] was 96 % of control.

For O=Cc1ccc(C=O)cc1, the T/C (dose: 100.0 mg/kg/injection, schedule: Q04DX002 (ip), vehicle: saline with Tween-80) was 98 % of control, the T/C (dose: 200.0 mg/kg/injection, schedule: Q04DX002 (ip), vehicle: saline with Tween-80) was 102 % of control and the T/C (dose: 400.0 mg/kg/injection, schedule: Q04DX002 (ip), vehicle: saline with Tween-80) was 102 % of control.

In the case of CNC(=O)c1nn(C)c(=O)[nH]c1=O, the T/C (dose: 50.0 mg/kg/injection, schedule: Q01DX005 (ip), vehicle: saline) is reported as 97 % of control, the T/C (dose: 100.0 mg/kg/injection, schedule: Q01DX005 (ip), vehicle: saline) is reported as 103 % of control and the T/C (dose: 200.0 mg/kg/injection, schedule: Q01DX005 (ip), vehicle: saline) is reported as 96 % of control.

With COC(=O)/C=c1/s/c(=C\C(C)=N)[nH]c1=O the T/C [7] was 90 % of control and the T/C [8] was 89 % of control.

In the case of C[CH](C)[GeH]([CH](C)C)[CH](C)C, the T/C [13] is reported as 91 % of control and the T/C [14] is reported as 91 % of control.

In the case of CC(C)c1cc(C(=O)[O-])c(O)c(C(C)C)c1.CC(C)c1cc(C(=O)[O-])c(O)c(C(C)C)c1.CC1OC(O[C@H]2/C=C/C=C/C=C/C=C/C=C/C=C/C=C/C(C)[C@@H](O)C(C)C(C)OC(=O)C[C@H](O)C[C@H](O)CC[C@@H](O)[C@H](O)C[C@H](O)C[C@]3(O)CC(O)[C@@H](C(=O)O)[C@H](C2)O3)C(O)C(N)C1O.[Cu+2] (some centres undefined), the T/C (dose: 12.5 mg/kg/injection, schedule: Q04DX002 (ip), vehicle: saline with Tween-80) is reported as 103 % of control, the T/C (dose: 25.0 mg/kg/injection, schedule: Q04DX002 (ip), vehicle: saline with Tween-80) is reported as 97 % of control and the T/C (dose: 50.0 mg/kg/injection, schedule: Q04DX002 (ip), vehicle: saline with Tween-80) is reported as 91 % of control.

For CC(C)(C)[Si](C)(C)O[C@@H]1C=C(S(=O)(=O)c2ccccc2)[C@H](N2CCSCC2)C1, the T/C (dose: 12.5 mg/kg/injection, schedule: Q01DX005 (ip), vehicle: Klucel (hydroxypropylcellulose) (HPC)) was 101 % of control, the T/C (dose: 25.0 mg/kg/injection, schedule: Q01DX005 (ip), vehicle: Klucel (hydroxypropylcellulose) (HPC)) was 97 % of control and the T/C [10] was 92 % of control.

Cc1ccccc1Nc1n[nH]c(=S)s1 was tested, and the T/C [16] was 95 % of control, the T/C (dose: 100.0 mg/kg/injection, schedule: Q04DX003 (ip), vehicle: saline with Tween-80) was 100 % of control and the T/C (dose: 200.0 mg/kg/injection, schedule: Q04DX003 (ip), vehicle: saline with Tween-80) was 95 % of control.

With CCCNC1=C(C)C(=O)C2=C(C1=O)[C@H](COC(N)=O)[C@]1(OC)[C@@H]3N[C@@H]3CN21 the T/C (dose: 6.25 mg/kg/injection, schedule: Q01DX009 (ip), vehicle: saline sonified) was 86 % of control and the T/C [15] was 86 % of control.
